Assay results taken from patent US11117900B2 (Vertex Pharmaceuticals Incorporated, priority 2012, dated 2021).

Test system: HCT116 colorectal cancer cells
Experiment: Cisplatin sensitization assay (96 h MTS cell viability);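 note: compound concentration needed to lower the IC50 of Cisplatin alone by a set fold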
Type: cell-based
Settings: Cisplatin sensitization value
In short: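 The MTS viability read, after 1 h with reagent, followed 96 h of co-treatment at 37° C. in 5% CO2. Both compound and cisplatin were titrated 2-fold from a 10 μM top final concentration in a complete concentration matrix on HCT116 cells. Scores +++/++/+ reflect cisplatin sensitization value ranges.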

| Compound | Cisplatin Sensitization Assay |
| --- | --- |
| Nc1nn2cc(F)cnc2c1C(=O)Nc1cnccc1-c1ccc(C(=O)N2CCN3CCC2CC3)cc1 [I-C-48, N-(4-(4-(1,4-diazabicyclo[3.2.2]nonane-4-carbonyl)phenyl)pyridin-3-yl)-2-amino-6-fluoropyrazolo[1,5-a]pyrimidine-3-carboxamide] | +++ (Compounds with a Cisplatin sensitization value of <0.02 μM are marked with “+++.”) |
| Nc1nn2cc(F)cnc2c1C(=O)Nc1cnccc1-c1ccc(C(=O)N2CCN(C3COC3)CC2)cc1 [I-C-49, 2-amino-6-fluoro-N-(4-(4-(4-(oxetan-3-yl)piperazine-1-carbonyl)phenyl)pyridin-3-yl)pyrazolo[1,5-a]pyrimidine-3-carboxamide] | +++ (Compounds with a Cisplatin sensitization value of <0.02 μM are marked with “+++.”) |
| Nc1nn2cc(F)cnc2c1C(=O)Nc1cnccc1-c1ccc(C(=O)N2CCN3CCC2CC3)cc1F [I-C-50, N-(4-(4-(1,4-diazabicyclo[3.2.2]nonane-4-carbonyl)-2-fluorophenyl)pyridin-3-yl)-2-amino-6-fluoropyrazolo[1,5-a]pyrimidine-3-carboxamide] | +++ (Compounds with a Cisplatin sensitization value of <0.02 μM are marked with “+++.”) |
| Nc1nn2cc(F)cnc2c1C(=O)Nc1cnccc1-c1ccc(C(=O)N2CCN(C3COC3)CC2)cc1F [I-C-51, 2-amino-6-fluoro-N-(4-(2-fluoro-4-(4-(oxetan-3-yl)piperazine-1-carbonyl)phenyl)pyridin-3-yl)pyrazolo[1,5-a]pyrimidine-3-carboxamide] | ++ (Compounds with a Cisplatin sensitization value >0.02 μM but <0.2 μM are marked with “++.”) |
| Nc1nn2cc(F)cnc2c1C(=O)Nc1cnccc1-c1ccc(C(=O)N2CCN(C3COC3)CC2)nc1 [I-C-52, 2-amino-6-fluoro-N-(6-(4-(oxetan-3-yl)piperazine-1-carbonyl)-[3,4′-bipyridin]-3′-yl)pyrazolo[1,5-a]pyrimidine-3-carboxamide] | ++ (Compounds with a Cisplatin sensitization value >0.02 μM but <0.2 μM are marked with “++.”) |
| Nc1nn2cc(F)cnc2c1C(=O)Nc1cnccc1-c1ccc(C(=O)N2CCC(N3CCCC3)CC2)nc1 [I-C-53, 2-amino-6-fluoro-N-(6-(4-(pyrrolidin-1-yl)piperidine-1-carbonyl)-[3,4′-bipyridin]-3′-yl)pyrazolo[1,5-a]pyrimidine-3-carboxamide] | +++ (Compounds with a Cisplatin sensitization value of <0.02 μM are marked with “+++.”) |
| Nc1nn2cc(F)cnc2c1C(=O)Nc1cnccc1-c1ccc(C(=O)N2CCC(N3CCC3)CC2)nc1 [I-C-54, 2-amino-N-(6-(4-(azetidin-1-yl)piperidine-1-carbonyl)-[3,4′-bipyridin]-3′-yl)-6-fluoropyrazolo[1,5-a]pyrimidine-3-carboxamide] | +++ (Compounds with a Cisplatin sensitization value of <0.02 μM are marked with “+++.”) |
| Cn1ccnc1-c1ccncc1NC(=O)c1c(N)nn2cc(F)cnc12 [I-C-55, 2-amino-6-fluoro-N-(4-(1-methyl-1H-imidazol-2-yl)pyridin-3-yl)pyrazolo[1,5-a]pyrimidine-3-carboxamide] | + (Compounds with a Cisplatin sensitization value >0.2 μM but <5 μM are marked with “+.”) |
| Cn1cncc1-c1ccncc1NC(=O)c1c(N)nn2cc(F)cnc12 [I-C-56, 2-amino-6-fluoro-N-(4-(1-methyl-1H-imidazol-5-yl)pyridin-3-yl)pyrazolo[1,5-a]pyrimidine-3-carboxamide] | +++ (Compounds with a Cisplatin sensitization value of <0.02 μM are marked with “+++.”) |
| Cn1nccc1-c1ccncc1NC(=O)c1c(N)nn2cc(F)cnc12 [I-C-57, 2-amino-6-fluoro-N-(4-(1-methyl-1H-pyrazol-5-yl)pyridin-3-yl)pyrazolo[1,5-a]pyrimidine-3-carboxamide] | +++ (Compounds with a Cisplatin sensitization value of <0.02 μM are marked with “+++.”) |
| Cn1c(-c2ccncc2NC(=O)c2c(N)nn3cc(F)cnc23)cccc1=O [I-C-58, 2-amino-6-fluoro-N-(1-methyl-6-oxo-1,6-dihydro-[2,4′-bipyridin]-3′-yl)pyrazolo[1,5-a]pyrimidine-3-carboxamide] | +++ (Compounds with a Cisplatin sensitization value of <0.02 μM are marked with “+++.”) |
| Cn1cc(-c2ccncc2NC(=O)c2c(N)nn3cc(F)cnc23)ccc1=O [I-C-59, 2-amino-6-fluoro-N-(1-methyl-6-oxo-1,6-dihydro-[3,4′-bipyridin]-3′-yl)pyrazolo[1,5-a]pyrimidine-3-carboxamide] | ++ (Compounds with a Cisplatin sensitization value >0.02 μM but <0.2 μM are marked with “++.”) |
| Nc1nn2cc(F)cnc2c1C(=O)Nc1cnccc1-c1ccccn1 [I-C-60, N-([2,4′-bipyridin]-3′-yl)-2-amino-6-fluoropyrazolo[1,5-a]pyrimidine-3-carboxamide] | ++ (Compounds with a Cisplatin sensitization value >0.02 μM but <0.2 μM are marked with “++.”) |
| CS(=O)(=O)c1ccc(-c2ccncc2NC(=O)c2c(N)nn3cc(F)cnc23)cc1 [I-C-61, 2-amino-6-fluoro-N-(4-(4-(methylsulfonyl)phenyl)pyridin-3-yl)pyrazolo[1,5-a]pyrimidine-3-carboxamide] | +++ (Compounds with a Cisplatin sensitization value of <0.02 μM are marked with “+++.”) |
| Cc1nccnc1-c1ccncc1NC(=O)c1c(N)nn2cc(F)cnc12 [I-C-62, 2-amino-6-fluoro-N-(4-(3-methylpyrazin-2-yl)pyridin-3-yl)pyrazolo[1,5-a]pyrimidine-3-carboxamide] | ++ (Compounds with a Cisplatin sensitization value >0.02 μM but <0.2 μM are marked with “++.”) |
| Cc1nn(C)cc1-c1ccncc1NC(=O)c1c(N)nn2cc(F)cnc12 [I-C-63, 2-amino-N-(4-(1,3-dimethyl-1H-pyrazol-4-yl)pyridin-3-yl)-6-fluoropyrazolo[1,5-a]pyrimidine-3-carboxamide] | +++ (Compounds with a Cisplatin sensitization value of <0.02 μM are marked with “+++.”) |
| Nc1nn2cc(F)cnc2c1C(=O)Nc1cnccc1-c1ccc(S(=O)(=O)N2CCC2)cc1 [I-C-64, 2-amino-N-(4-(4-(azetidin-1-ylsulfonyl)phenyl)pyridin-3-yl)-6-fluoropyrazolo[1,5-a]pyrimidine-3-carboxamide] | +++ (Compounds with a Cisplatin sensitization value of <0.02 μM are marked with “+++.”) |
| Cn1ncnc1-c1ccncc1NC(=O)c1c(N)nn2cc(F)cnc12 [I-C-65, 2-amino-6-fluoro-N-(4-(1-methyl-1H-1,2,4-triazol-5-yl)pyridin-3-yl)pyrazolo[1,5-a]pyrimidine-3-carboxamide] | ++ (Compounds with a Cisplatin sensitization value >0.02 μM but <0.2 μM are marked with “++.”) |
| CN1CCOC[C@@H]1c1ccc(-c2ccncc2NC(=O)c2c(N)nn3cc(F)cnc23)cc1 [I-C-66, (S)-2-amino-6-fluoro-N-(4-(4-(4-methylmorpholin-3-yl)phenyl)pyridin-3-yl)pyrazolo[1,5-a]pyrimidine-3-carboxamide] | +++ (Compounds with a Cisplatin sensitization value of <0.02 μM are marked with “+++.”) |
| Cc1cncnc1-c1ccncc1NC(=O)c1c(N)nn2cc(F)cnc12 [I-C-67, 2-amino-6-fluoro-N-(4-(5-methylpyrimidin-4-yl)pyridin-3-yl)pyrazolo[1,5-a]pyrimidine-3-carboxamide] | ++ (Compounds with a Cisplatin sensitization value >0.02 μM but <0.2 μM are marked with “++.”) |
